Values of other authors as cited in US20150246117A1, “TREATMENT OF TYPE 2 DIABETES AND RELATED CONDITIONS” (priority 2012, published 2015).
Read-outs that look alike come from different tables or passages of the source.

Legend:
CYP3A4/5 = conditions: coadministration with strong CYP3A4/5 inhibitors (e.g., ketoconazole)
[1] = for hypoglycemia in combination therapy: combined with sulfonylurea, insulin secretagogue or insulin
[2] = in vivo
[3] = co-administration of 100 mg sitagliptin for 10 days

N#C[C@@H]1C[C@@H]2C[C@@H]2N1C(=O)[C@@H](N)C12CC3CC(CC(O)(C3)C1)C2 [saxagliptin]
saxagliptin concentrations (CYP3A4/5): increases | Peripheral edema ([1]; combination with a thiazolidinedione (TZD) vs placebo and TZD): Peripheral edema was reported more | Half-life (after oral 5 mg): 2.5 h after

COc1ccc2cc3[n+](cc2c1OC)CCc1cc2c(cc1-3)OCO2 [berberine]
adverse events / tolerability in clinical studies ([1]; human, in vivo): Transient gastrointestinal adverse | Half-life (in vivo): 3 to 4 h

N#C[C@@H]1CCCN1C(=O)CNC12CC3CC(CC(O)(C3)C1)C2 [vildagliptin]
excretion in milk, animal studies [2]: excretion of vildagliptin

CCCCCCCCCCCCCCCC(=O)N[C@@H](CCC(=O)NCCCC[C@H](NC(=O)[C@H](C)NC(=O)[C@H](C)NC(=O)[C@H](CCC(N)=O)NC(=O)CNC(=O)[C@H](CCC(=O)O)NC(=O)[C@H](CC(C)C)NC(=O)[C@H](Cc1ccc(O)cc1)NC(=O)[C@H](CO)NC(=O)[C@H](CO)NC(=O)[C@@H](NC(=O)[C@H](CC(=O)O)NC(=O)[C@H](CO)NC(=O)[C@@H](NC(=O)[C@H](Cc1ccccc1)NC(=O)[C@@H](NC(=O)CNC(=O)[C@H](CCC(=O)O)NC(=O)[C@H](C)NC(=O)[C@@H](N)Cc1cnc[nH]1)[C@@H](C)O)[C@@H](C)O)C(C)C)C(=O)N[C@@H](CCC(=O)O)C(=O)N[C@@H](Cc1ccccc1)C(=O)N[C@H](C(=O)N[C@@H](C)C(=O)N[C@@H](Cc1c[nH]c2ccccc12)C(=O)N[C@@H](CC(C)C)C(=O)N[C@H](C(=O)N[C@@H](CCCNC(=N)N)C(=O)NCC(=O)N[C@@H](CCCNC(=N)N)C(=O)NCC(=O)O)C(C)C)[C@@H](C)CC)C(=O)O [liraglutide]
Immunogenicity-related events, including urticaria ([1]; treated patients in clinical trials (comparator-treated 0.4%)): Victoza-treated patients (0.8%) than among

taspoglutide
patients showing antibodies against the drug ([1]; human, in vivo): (compared to exenatide); 49% of patients

Cn1c(=O)cc(N2CCC[C@@H](N)C2)n(Cc2ccccc2C#N)c1=O [Alogliptin]
adverse events / tolerability in clinical studies ([1]; human, in vivo): The agent is relatively well tolerated | rate of skin events, primarily pruritus ([1]; human, in vivo): finding being a marginally higher rate | Half-life (in vivo): 12.4 to 21.4 h

Dulaglutide
adverse events / tolerability in clinical studies ([1]; human, in vivo): Gastrointestinal adverse events reported

O=C(CN[C@@H]1CCNC1)N1CCC[C@H]1B(O)O [dutogliptin]
Half-life (in vivo): 10 to 13 h

CC#CCn1c(N2CCC[C@@H](N)C2)nc2c1c(=O)n(Cc1nc(C)c3ccccc3n1)c(=O)n2C [linagliptin]
hypoglycemia in combination therapy [1]: Hypoglycemia was more commonly | Half-life (after 5 mg dose): >100 h after 5 mg

N[C@@H](CC(=O)N1CCn2c(nnc2C(F)(F)F)C1)Cc1cc(F)c(F)cc1F [sitagliptin]
fertility / fetal harm, animal studies or animal data [2]: JANUVIA did not impair | hypoglycemia in combination therapy [1]: There is an increased risk of | Half-life (after oral): 12.4 h after | increase in area under the curve (AUC) of digoxin [3]: curve (AUC, 11%)

N[C@@H](CC(=O)N1CCc2c(nc(C(F)(F)F)nc2C(F)(F)F)C1)CN1CC(F)(F)CCC1=O [Gemigliptin]
adverse events / tolerability in clinical studies ([1]; human, in vivo): No serious adverse events recorded. | Half-life (in vivo): 17 to 21 h
